Measured values taken from patent EP1658776A1, “Method for producing live food water organisms in the presence of an antibacterial” (priority 2004, dated 2006).
Marks after values point to notes of the source that are not given here.

Experiments:
crab larvae = conditions: natural seawater; cited from earlier work
Vibrio species = assay: Vibrio counts on TCBS in hatching medium, silver with or without thiosulphate (Example 3); format: cell-based, Vibrio sp.; conditions: 24 hours; for Vibrio counts on TCBS (cfu/ml) With thiosulphate: silver nitrate:thiosulphate 1:4
Protocol: (§1) GSL-cysts were incubated at 2g cysts /l, following standard procedures, i.e.: salinity of 25 g/l, temperature of 30°C. Continuous illumination and air bubbling was provided. Different concentrations of silver nitrate were added to the hatching medium. Thiosulphate was added to compare its effect on the hatching of Artemia and reduction of Vibrio sp. When thiosulphate was added, the molecular ratio of silver nitrate to thiosulphate was (1:4). After 24 hours, samples of the hatching medium were taken for determination of Vibrio sp. on TCBS and hatching percentage was calculated. Table 2: Effect of thiosulphate in combination with Ag, on hatching percentage of Artemia and on the amount of Vibrio species in the hatching medium

Vibrio sp. [1] = assay: Vibrio count on TCBS in hatching medium (Example 1); format: cell-based; conditions: 24h incubation
Protocol: (§2) 1000 g commercially available dry cysts from Great Salt Lake (GSL-strain) were sprayed with 20 ml solution to which 2.43g or 2.02g AgNO3 is added and another 1000 g cysts were sprayed with 20 ml to which 14.20g or 11.81g thiosulphate (Na2S2O3.5(H2O)) is added (in a ratio of 4 mol thiosulphate to 1 mol AgNO3) to obtain respectively 1.50 or 1.25 mg Ag/l in the hatching medium, after incubation of 2g treated cysts therein. The cysts were gently mixed for 15-30 minutes while spraying. Both fractions were mixed together in a ratio of (1:1). The cysts were vacuum packed and stored at different temperatures (4°C, 20°C and 30°C). Cysts from the same batch were kept as a control. After 4 weeks they were incubated at 2g (treated) cysts /l, following standard procedures, i.e.: salinity of 25 g/I, temperature of 30°C. Continuous illumination and air bubbling was provided. After 24 hours of incubation, samples of the hatching medium were taken for determination of the total count on Marine agar (MA) and Vibrio sp. on TCBS (specific growth medium for Vibrio sp.). The hatching percentage (percentage of cysts that hatch on the total of full cysts) of the cysts was calculated. Tabel 1: Hatching percentage (HP) of cysts, number of colony forming units (cfu) per ml of hatching medium on MA and on TCBS after 24h incubation of Artemia cysts of control cysts and cysts with different amounts of AgNO3 (expressed as mg Ag/l hatching medium). Each value is the average of three counts.

Artemia cysts = assay: Hatching percentage of treated cysts after storage at different temperatures (Example 2, Figures 1a/1b); format: in vivo, Artemia (GSL-strain); conditions: AgNO3 (and thiosulphate) applied on cysts; 1 to 8 weeks of storage at 20° C or more
Protocol: 1000 g commercially available dry cysts (GSL-strain) were sprayed with a 20 ml solution to which 2.43g AgNO3 and another 1000g cysts were sprayed 20 ml solution to which 14.20g thiosulphate (Na2S2O3.5(H2O)) was added. The cysts were gently mixed for 15 - 30 minutes while spraying. Both fractions of cysts were mixed together in a ratio of [1:1]. The cysts were vacuum packed and stored at different temperatures (4°C, 20°C and 30°C) for 1 to 8 weeks. At different time intervals (1 week, 2 weeks, 4 weeks and 8 weeks) they were incubated at 2g (treated) cysts /l following standard procedures, i.e.: salinity of 25 g/l, temperature of 30°C. Continuous illumination and air bubbling was provided. After 24 hours, the hatching percentage (percentage of cysts that hatch on the total of full cysts) was calculated. These values were compared with a former batch of cysts on which 1.4 mg/l of the bactericidal isothiazolin derivative comprising 5-chloro-2-methyl-4-isothiazolin-3-one and 2-methyl-4-isothiazolin-3-one was applied.

[2] = tested on: marine heterotrophic bacterial population; assay: Total bacterial count on Marine agar in hatching medium (Example 1); format: cell-based; conditions: 24h incubation
Protocol: as §2

Artemia = assay: Hatching percentage with silver in hatching medium, with or without thiosulphate (Example 3); format: in vivo, Artemia (GSL-cysts); conditions: for Hatching percentage (%) Without thiosulphate / Hatching percentage (%) With thiosulphate: 24 hours; for Hatching percentage (%) With thiosulphate: silver nitrate:thiosulphate 1:4
Protocol: as §1

Vibrio sp. [3] = assay: Vibrio reduction by silver combined with berberine during hatching (Example 4, Figure 2); format: cell-based; conditions: 0.1 mg Ag per liter, with or without thiosulphate, no berberine
Protocol: GSL-cysts were incubated at 2g cysts /l, following standard procedures, i.e.: salinity of 25 g/l, temperature of 30°C. Continuous illumination and air bubbling was provided. Silver nitrate, thiosulphate and berberine were added in different concentrations to the hatching medium. After 24 hours, the hatching percentage was calculated and samples of the hatching medium were taken for determination of Vibrio sp. on TCBS.

pathogenic Vibrio sp. = assay: Vibrio in shrimp tanks fed Artemia nauplii enriched in the presence of Ag; format: in vivo; conditions: Artemia nauplii enriched in the presence of Ag fed for 14 days to larval shrimp; versus control enrichment
oyster embryos = conditions: natural seawater; cited from earlier work
[4] = 1.25 mg/l Ag (AgNO3 + thiosulphate on cysts), storage 4°C
[5] = 1.25 mg/l Ag (AgNO3 + thiosulphate on cysts), storage 20°C
[6] = 1.25 mg/l Ag (AgNO3 + thiosulphate on cysts), storage 30°C
[7] = 1.50 mg/l Ag (AgNO3 + thiosulphate on cysts), storage 4°C
[8] = 1.50 mg/l Ag (AgNO3 + thiosulphate on cysts), storage 20°C
[9] = 1.50 mg/l Ag (AgNO3 + thiosulphate on cysts), storage 30°C

SMILES: O=[N+]([O-])[O-].[Ag+] [Ag, silver nitrate]
- toxicity levels (EC50) (crab larvae): 0.055 mg Ag/l
- Vibrio counts on TCBS (cfu/ml) Without thiosulphate (Vibrio species; Ag 0.1 mg/l as silver nitrate): 7.96 x 10^6 cfu/ml
- Vibrio counts on TCBS (cfu/ml) With thiosulphate (Vibrio species; Ag 0.1 mg/l): 1.47 x 10^5 cfu/ml
- Vibrio counts on TCBS (cfu/ml) Without thiosulphate (Vibrio species; Ag 0.25 mg/l as silver nitrate): 1.79 x 10^5 cfu/ml
- Vibrio counts on TCBS (cfu/ml) With thiosulphate (Vibrio species; Ag 0.25 mg/l): 1.70 x 10^4 cfu/ml
- Vibrio counts on TCBS (cfu/ml) Without thiosulphate (Vibrio species; Ag 0.5 mg/l as silver nitrate): 3.48 x 10^4 cfu/ml
- Vibrio counts on TCBS (cfu/ml) With thiosulphate (Vibrio species; Ag 0.5 mg/l): <3.00 x 10^2 cfu/ml
- Vibrio counts on TCBS (cfu/ml) Without thiosulphate (Vibrio species; Ag 0.75 mg/l as silver nitrate): 6.23 x 10^2 cfu/ml
- Vibrio counts on TCBS (cfu/ml) Without thiosulphate (Vibrio species; Ag 1.0 mg/l as silver nitrate): 4.80 x 10^2 cfu/ml
- Vibrio counts on TCBS (cfu/ml) With thiosulphate (Vibrio species; Ag 1.0 mg/l): <3.00 x 10^2 cfu/ml
- Vibrio counts on TCBS (cfu/ml) Without thiosulphate (Vibrio species; Ag 1.25 mg/l as silver nitrate): <3.00 x 10^2 cfu/ml
- Vibrio counts on TCBS (cfu/ml) Without thiosulphate (Vibrio species; Ag 1.5 mg/l as silver nitrate): <3.00 x 10^2 cfu/ml
- Vibrio counts on TCBS (cfu/ml) With thiosulphate (Vibrio species; Ag 1.5 mg/l): <3.00 x 10^2 cfu/ml
- Vibrio counts on TCBS (cfu/ml) Without thiosulphate (Vibrio species; Ag 1.75 mg/l as silver nitrate): <3.00 x 10^2 cfu/ml
- Vibrio counts on TCBS (cfu/ml) Without thiosulphate (Vibrio species; Ag 2.0 mg/l as silver nitrate): <3.00 x 10^2 cfu/ml
- Vibrio counts on TCBS (cfu/ml) With thiosulphate (Vibrio species; Ag 2.0 mg/l): <3.00 x 10^2 cfu/ml
- Vibrio counts on TCBS (cfu/ml) With thiosulphate (Vibrio species; Ag 2.5 mg/l): <3.00 x 10^2 cfu/ml
- Vibrio counts on TCBS (cfu/ml) With thiosulphate (Vibrio species; Ag 5.0 mg/l): <3.00 x 10^2 cfu/ml
- Vibrio counts on TCBS (cfu/ml) With thiosulphate (Vibrio species; Ag 10.0 mg/l): <3.00 x 10^2 cfu/ml
- TCBS (cfu/ml) (Vibrio sp. [1]; [4]): <3.00 x 10^2 cfu/ml
- TCBS (cfu/ml) (Vibrio sp. [1]; [5]): 5.66 x 10^3 cfu/ml
- TCBS (cfu/ml) (Vibrio sp. [1]; [6]): <3.00 x 10^2 cfu/ml
- TCBS (cfu/ml) (Vibrio sp. [1]; [7]): <3.00 x 10^2 cfu/ml
- TCBS (cfu/ml) (Vibrio sp. [1]; [8]): <3.00 x 10^2 cfu/ml
- TCBS (cfu/ml) (Vibrio sp. [1]; [9]): <3.00 x 10^2 cfu/ml
- Hatching percentage (Artemia cysts): did not decrease
- MA (cfu/ml) [2, 4]: 2.69 x 10^7 cfu/ml
- MA (cfu/ml) [2, 5]: 1.29 x 10^7 cfu/ml
- MA (cfu/ml) [2, 6]: 3.17 x 10^7 cfu/ml
- MA (cfu/ml) [2, 7]: 1.20 x 10^7 cfu/ml
- MA (cfu/ml) [2, 8]: 8.07 x 10^6 cfu/ml
- MA (cfu/ml) [2, 9]: 6.55 x 10^6 cfu/ml
- Hatching percentage (%) Without thiosulphate (Artemia; Ag 0.1 mg/l as silver nitrate): 77.1%
- Hatching percentage (%) With thiosulphate (Artemia; Ag 0.1 mg/l): 79.9%
- Hatching percentage (%) Without thiosulphate (Artemia; Ag 0.25 mg/l as silver nitrate): 76.6%
- Hatching percentage (%) With thiosulphate (Artemia; Ag 0.25 mg/l): 78.6%
- Hatching percentage (%) Without thiosulphate (Artemia; Ag 0.5 mg/l as silver nitrate): 78.3%
- Hatching percentage (%) With thiosulphate (Artemia; Ag 0.5 mg/l): 76.0%
- Hatching percentage (%) Without thiosulphate (Artemia; Ag 0.75 mg/l as silver nitrate): 73.9%
- Hatching percentage (%) Without thiosulphate (Artemia; Ag 1.0 mg/l as silver nitrate): 72.5%
- Hatching percentage (%) With thiosulphate (Artemia; Ag 1.0 mg/l): 74.4%
- Hatching percentage (%) Without thiosulphate (Artemia; Ag 1.25 mg/l as silver nitrate): 75.5%
- Hatching percentage (%) Without thiosulphate (Artemia; Ag 1.5 mg/l as silver nitrate): 71.1%
- Hatching percentage (%) With thiosulphate (Artemia; Ag 1.5 mg/l): 76.3%
- Hatching percentage (%) Without thiosulphate (Artemia; Ag 1.75 mg/l as silver nitrate, hatching is delayed (maximal HP not reached after 24 h)): 69.9* %
- Hatching percentage (%) Without thiosulphate (Artemia; Ag 2.0 mg/l as silver nitrate, hatching is delayed (maximal HP not reached after 24 h)): 65.0* %
- Hatching percentage (%) With thiosulphate (Artemia; Ag 2.0 mg/l): 74.3%
- Hatching percentage (%) Without thiosulphate (Artemia; Ag 2.5 mg/l as silver nitrate, hatching is delayed (maximal HP not reached after 24 h)): 50.0* %
- Hatching percentage (%) With thiosulphate (Artemia; Ag 2.5 mg/l): 75.6%
- Hatching percentage (%) Without thiosulphate (Artemia; Ag 5.0 mg/l as silver nitrate, hatching is delayed (maximal HP not reached after 24 h)): 28.0* %
- Hatching percentage (%) With thiosulphate (Artemia; Ag 5.0 mg/l): 77.6%
- Hatching percentage (%) Without thiosulphate (Artemia; Ag 10.0 mg/l as silver nitrate): 0%
- Hatching percentage (%) With thiosulphate (Artemia; Ag 10.0 mg/l): 77.1%
- hatching of the Artemia naupllii (Artemia; more than 2 mg/l till at least 10 mg/l Ag, thiosulphate 4 mol per 1 mol AgNO3): still not affected
- hatching of Artemia nauplii (Artemia; very high concentrations (> 10 mg/l), without thiosulphate): do not hatch at all
- decrease of Vibrio sp. in the hatching medium (Vibrio sp. [3]): usually not sufficient to decrease the Vibrio sp.
- pathogenic Vibrio sp. in the shrimp tanks (pathogenic Vibrio sp.): a reduction in pathogenic Vibrio sp. was noticed
- toxicity levels (EC50) (oyster embryos): 0.022 mg Ag/l
